Measured values as given in patent publication US12180187B2, “1-phenyl-5-azinylpyrazolyl-3-oxyalkyl acids and their use for controlling unwanted plant growth” (BAYER AKTIENGESELLSCHAFT, priority 2019, dated 2024).

Experiments:
AMARE [1] = test: Post-emergence action against AMARE, 1.28 kg/ha; format: in vivo, Amaranthus retroflexus; conditions: dosage 1280 g/ha, visual rating about 3 weeks after treatment vs untreated controls (100% = plants died)
Outline: (§1)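 Visual rating against untreated plants about 3 weeks after spraying gives % activity, where 0% means like controls and 100% means plants died. Plants were treated post-emergence at the one-leaf stage with compound formulated as wettable powder or emulsion concentrate, applied at 600 L water/ha plus 0.5% additive.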

MATIN [2] = test: Pre-emergence action against MATIN, 1280 g/ha; format: in vivo, Tripleurospermum inodorum (Matricaria inodora); conditions: scored visually after about 3 weeks vs untreated controls (100% = plants have died)
Outline: (§2)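 Visual percent-effect ratings (0% = like control, 100% = plants dead) were taken about 3 weeks after pre-emergence soil-surface application of WP/EC aqueous formulations with 0.5% additive, 600 L water/ha. Seeds were sown in sandy loam and grown in the greenhouse.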

ALOMY [3] = test: Pre-emergence action against ALOMY, 1280 g/ha; format: in vivo, Alopecurus myosuroides; conditions: visual scoring after about 3 weeks vs untreated controls, 100% = plants have died, 0% = like control plants
Outline: as §2

LOLRI = test: Pre-emergence action against LOLRI, 1280 g/ha; format: in vivo, Lolium rigidum; conditions: visual scoring after about 3 weeks vs untreated controls, 100% = plants have died, 0% = like control plants
Outline: as §2

POAAN [4] = test: Pre-emergence action against POAAN, 1280 g/ha; format: in vivo, Poa annua; conditions: visual scoring after about 3 weeks vs untreated controls, 100% = plants have died, 0% = like control plants
Outline: as §2

VERPE [5] = test: Post-emergence action against VERPE, 1.28 kg/ha; format: in vivo, Veronica persica; conditions: dosage 1280 g/ha, visual rating about 3 weeks after treatment vs untreated controls (100% = plants died)
Outline: as §1

AMARE [6] = test: Pre-emergence action against AMARE, 1280 g/ha; format: in vivo, Amaranthus retroflexus; conditions: scored visually after about 3 weeks vs untreated controls (100% = plants have died)
Outline: as §2

KCHSC [7] = test: Post-emergence action against KCHSC, 1.28 kg/ha; format: in vivo, Bassia scoparia; conditions: dosage 1280 g/ha, visual rating about 3 weeks after treatment vs untreated controls (100% = plants died)
Method: • a) Seeds of mono- and dicotyledonous weed plants are placed in plastic pots in sandy loam soil (twin sowing with one species each of mono- or dicotyledonous weed plants per pot), covered with soil and cultivated in a greenhouse under controlled growth conditions. 2 to 3 weeks after sowing, the test plants are treated at the one-leaf stage. The compounds of the invention, formulated in the form of wettable powders (WP) or as emulsion concentrates (EC), are applied to the green parts of the plants as aqueous suspension or emulsion with addition of 0.5% additive at a water application rate equivalent to 600 litres per hectare. After the test plants have been kept in the greenhouse under optimum growth conditions for about 3 weeks, the activity of the preparations is rated visually in comparison to untreated controls. For example, 100% activity=the plants have died, 0% activity=like control plants. As shown by the results, compounds of the general formula (I) of the invention, in post-emergence treatment, have very good herbicidal efficacy (90% to 100% herbicidal action) against harmful plants such as Abutilon theophrasti, Digitaria sanguinalis, Echinochloa crus-galli, Matricaria inodora, Poa annua, at an application rate of 1.28 kg of active substance per hectare.

ECHCG [8] = test: Post-emergence action against ECHCG, 1.28 kg/ha; format: in vivo, Echinochloa crus-galli; conditions: dosage 1280 g/ha, visual rating about 3 weeks after treatment vs untreated controls
Outline: as §1

ABUTH = test: Post-emergence action against ABUTH, 1.28 kg/ha; format: in vivo, Abutilon theophrasti; conditions: dosage 1280 g/ha, visual rating about 3 weeks after treatment vs untreated controls (100% = plants died)
Outline: as §1

ECHCG [9] = test: Pre-emergence action against ECHCG, 1280 g/ha; format: in vivo, Echinochloa crus-galli; conditions: visual scoring after about 3 weeks vs untreated controls, 100% = plants have died, 0% = like control plants
Outline: as §2

SETVI = test: Pre-emergence action against SETVI, 1280 g/ha; format: in vivo, Setaria viridis; conditions: visual scoring after about 3 weeks vs untreated controls, 100% = plants have died, 0% = like control plants
Outline: as §2

ALOMY [10] = test: Post-emergence action against ALOMY, 1.28 kg/ha; format: in vivo, Alopecurus myosuroides; conditions: dosage 1280 g/ha, visual rating about 3 weeks after treatment vs untreated controls
Outline: as §1

DIGSA [11] = test: Pre-emergence action against DIGSA, 1280 g/ha; format: in vivo, Digitaria sanguinalis; conditions: visual scoring after about 3 weeks vs untreated controls, 100% = plants have died, 0% = like control plants
Outline: as §2

MATIN [12] = test: Post-emergence action against MATIN, 1.28 kg/ha; format: in vivo, Tripleurospermum inodorum (Matricaria inodora); conditions: dosage 1280 g/ha, visual rating about 3 weeks after treatment vs untreated controls (100% = plants died)
Outline: as §1

STEME [13] = test: Post-emergence action against STEME, 1.28 kg/ha; format: in vivo, Stellaria media; conditions: dosage 1280 g/ha, visual rating about 3 weeks after treatment vs untreated controls (100% = plants died)
Outline: as §1

VERPE [14] = test: Pre-emergence action against VERPE, 1280 g/ha; format: in vivo, Veronica persica; conditions: scored visually after about 3 weeks vs untreated controls (100% = plants have died)
Outline: as §2

STEME [15] = test: Pre-emergence action against STEME, 1280 g/ha; format: in vivo, Stellaria media; conditions: scored visually after about 3 weeks vs untreated controls (100% = plants have died)
Outline: as §2

KCHSC [16] = test: Pre-emergence action against KCHSC, 1280 g/ha; format: in vivo, Bassia scoparia; conditions: scored visually after about 3 weeks vs untreated controls (100% = plants have died)
Text: 1. Pre-Emergence Herbicidal Effect and Crop Plant Compatibility a) Seeds of mono- and dicotyledonous weed plants are placed in plastic pots in sandy loam soil (doubly sown with one species each of mono- or dicotyledonous weed plants per pot) and covered with soil. The compounds of the invention, formulated in the form of wettable powders (WP) or as emulsion concentrates (EC), are then applied onto the surface of the covering soil as aqueous suspension or emulsion with addition of 0.5% additive at a water application rate equivalent to 600 litres per hectare. After the treatment, the pots are placed in a greenhouse and kept under good growth conditions for the trial plants. After about 3 weeks, the effect of the preparations is scored visually in comparison with untreated controls as percentages. For example, 100% activity=the plants have died, 0% activity=like control plants. 1. Pre-Emergence Effectiveness Tables 1 to 12 below show the effects of selected compounds of the general formula (I) according to Tables 1 and 2 on various harmful plants and at an application rate corresponding to 1280 g/ha, which were obtained by the experimental procedure mentioned above.

POAAN [17] = test: Post-emergence action against POAAN, 1.28 kg/ha; format: in vivo, Poa annua; conditions: dosage 1280 g/ha, visual rating about 3 weeks after treatment vs untreated controls
Outline: as §1

DIGSA [18] = test: Post-emergence action against DIGSA, 1.28 kg/ha; format: in vivo, Digitaria sanguinalis; conditions: dosage 1280 g/ha, visual rating about 3 weeks after treatment vs untreated controls
Outline: as §1

Structure (SMILES) | Post-emergence action against AMARE (AMARE [1]) [%] | Pre-emergence action against MATIN (MATIN [2]) [%] | Pre-emergence action against LOLRI (LOLRI) [%] | Pre-emergence action against POAAN (POAAN [4]) [%] | Post-emergence action against VERPE (VERPE [5]) [%] | Pre-emergence action against AMARE (AMARE [6]) [%] | Post-emergence action against KCHSC (KCHSC [7]) [%] | Post-emergence action against ECHCG (ECHCG [8]) [%] | Post-emergence action against ABUTH (ABUTH) [%] | Pre-emergence action against ECHCG (ECHCG [9]) [%] | Pre-emergence action against SETVI (SETVI) [%] | Post-emergence action against ALOMY (ALOMY [10]) [%] | Pre-emergence action against DIGSA (DIGSA [11]) [%] | Post-emergence action against MATIN (MATIN [12]) [%] | Post-emergence action against STEME (STEME [13]) [%] | Pre-emergence action against VERPE (VERPE [14]) [%] | Pre-emergence action against STEME (STEME [15]) [%] | Pre-emergence action against KCHSC (KCHSC [16]) [%] | Post-emergence action against POAAN (POAAN [17]) [%] | Post-emergence action against DIGSA (DIGSA [18]) [%] | further results
COC(=O)CNC(=O)COc1nn(-c2ccc(F)cc2)c(-c2ccc(F)nc2)c1C(F)(F)F [Example X-020] | 100 | 90 | 100 | 100 | 100 | 90 | 100 | 100 | 90 | 100 | 100 | 100 | 100 | 90 | 100 | 90 | 90 | 90 | 100 | – | Pre-emergence action against ALOMY (ALOMY [3]): 100%
CON(C)C(=O)COc1nn(-c2ccc(F)cc2F)c(-c2ccc(F)nc2)c1Br [Example X-025] | – | 100 | 100 | 100 | 100 | 100 | 90 | 100 | – | 100 | 100 | 100 | 100 | 90 | – | 100 | 100 | 100 | 100 | 100 | Pre-emergence action against ALOMY (ALOMY [3]): 100%
O=C(O)COc1nn(-c2ccccc2F)c(-c2ccnnc2)c1Br [IV-002] | 100 | 100 | – | 100 | 90 | 100 | 90 | – | 90 | 100 | 100 | – | 90 | 90 | 100 | – | 100 | 90 | 100 | 100 | –
CCOC(=O)COc1nn(-c2ccccc2F)c(-c2cncnc2)c1[N+](=O)[O-] [VI-005] | 90 | 100 | 100 | 100 | 90 | 100 | 90 | 90 | 90 | 90 | 100 | 90 | 100 | 90 | 100 | 100 | 100 | 90 | 100 | – | Pre-emergence action against ALOMY (ALOMY [3]): 90%
COC(=O)[C@H](C)Oc1nn(-c2ccccc2F)c(-c2cncnc2)c1Br [VI-008] | – | 90 | 100 | 100 | – | 100 | 90 | – | 90 | – | 100 | – | 100 | 90 | 90 | – | 100 | 90 | 100 | 100 | –
O=C(O)COc1nn(-c2ccc(F)cc2)c(-c2ccc(F)nc2)c1C(F)(F)F [VII-125] | 90 | 90 | 100 | 100 | 100 | 90 | 90 | 90 | – | 100 | 100 | 100 | 100 | 90 | 90 | 90 | 90 | 100 | 100 | 100 | –
